≈ marks a conversion by molar mass, not a printed value.
Legend:
[1] = test system: collagen-induced arthritis (CIA) in female Lewis rats; assay: Histological evaluation of ankle cross-sections from CIA rats; format: in vivo, rat; conditions: multiple administration, compared to vehicle control
Procedure: (§1) At a day 0 of the experiment animals were subcutaneously (SC) injected at the base of the tail with 200 μL of the emulsion using a 27 gauge × 5/8″ needle and Hamilton syringe. At day 7 after the initial immunization, a booster injection with 100 μL of emulsion was performed. Ninety % of rats developed symptoms of disease (paw swelling >150% of day 0) at day 20 of the experiment. At this day, diseased animals were randomly divided into five groups (n = 6). […] One investigated group received (±)-LSF dissolved in saline at an SC dose of 80 mg kg^−1 once daily. The corresponding control groups were administered with appropriate volumes of vehicles IP or SC. At day 40 animals were sacrificed. Hind paws of rats were taken and immersed into 4% buffered formalin solution for a subsequent histological analysis. Blood samples were collected and allowed to clot for 20 min and then centrifuged at 2000 x g for 15 min. Serum samples were collected and frozen at -80°C.
The morphological studies were performed with the imaging CellSens Dimention (Olympus) software. Osteoarthritis histopathology was assessed based on the symptoms associated with synovial inflammation, chondropathy, and subchondral osteoarthritis. Synovitis index estimation involved synovial inflammation, synovial lining thickness, dense of cellularity, and presence of perivascular lymphoid aggregates, where normal synovium (score 0) is defined as thin linning with sparse cellular distribution and no/few inflammatory cells, mild and moderate synovial inflammation (score 1 to 2) indicate thickness of linning with dense cellularity with inflammatory cells, and severe inflammation (score 3) means hypervascular synovitis containing lymphoid aggregates. Two aspects of chondropathy were graded: surface integrity and chondrocyte yielding score 0 for normal morphology to score 3 for chondral lesion with chondrocyte hypercellurarity and/or cloning, and complete cartilage surface integrity loss. Subchondral plate thickening, bone trabeculae deterioration, bone marrow lesion (bone pseudocysts - cavitary lesion formation) associated with fibrovascular replacement of marrow spaces were accounted for subchondral osteoarthritis with grading score from 0 to 3 in severe lesion. The sample preparation procedure for histological evaluation is described in the supplementary materials.
The hind paws were cut about 0.5 cm above the rat joint. Then the joints were fixed in 4% buffered formalin for one week, decalcified, dehydrated in ethanol solutions of increasing concentrations, and embedded in the paraffin blocks. Subsequently, paws were serially cut at 6-μm thickness using a rotational microtome Leica RM 2145 type and stained with Masson's Trichrome. Digital images were taken using a computerized digital camera (Olympus UC90, Olympus).

[2] = test system: TNF-α release from LPS-stimulated whole rat blood; assay: Inhibition of LPS-induced TNF-α release in whole rat blood; format: cell-based
Procedure: Stimulation of whole rat blood by LPS was performed on 96-well plates. […] Contents of each well (200 μL) consisted of heparinized rat blood containing 10 U heparin mL^−1 diluted with RPMI-1640 medium at a ratio of 1:1 (v/v). All compounds were dissolved in DMSO and added to blood (the final DMSO concentration in blood was 0.5%) 15 min prior to the addition of LPS dissolved in RPMI-1640 medium to achieve the LPS concentration of 10 mg L^−1. Both, LPS and DMSO were also added to control wells at the same concentrations. Additional control samples (for testing baseline TNF-α levels in blood) consisted of DMSO (0.5%) without LPS. The incubation was performed at 37°C in a humidified atmosphere of 5% CO2 in an MCO-5 AC-PE incubator (PHCbi, Japan). After 6 h of incubation, the plates were centrifuged for 10 min using PlateFuge MicroCentrifuge (Benchmark Scientific, USA). The individual plasma samples were harvested and stored at −80°C until analysis.
TNF-α levels in LPS-stimulated rat blood in vitro and in rat plasma samples from the in vivo studies were analyzed by the Rat TNF-α Quantikine ELISA Immunoassay Kit (R&D Systems, USA) according to the manufacturer’s instructions. The assay was linear at the range of 12.5–800 pg mL^−1. Levels of TNF-α in mice serum were measured by ELISA Kits for Tumor Necrosis Factor Alpha (Cloud-Clone Corp., USA). This assay was linear at the range of 15.6–1000 pg mL^−1. Absorbance was measured at 450 nm using a POLARstar Omega multi-mode microplate reader (BMG LABTECH, Germany).

[3] = test system: collagen-induced arthritis (CIA) in female Lewis rats; assay: Collagen-induced arthritis in rats, paw swelling, PK/PD/DIS progression model; format: in vivo, rat; conditions: for decrease of relative paw swelling: at the last observation time point, once daily from day 20: rolipram 10 mg kg^−1 IP, GRMS-55 50 mg kg^−1 IP, (±)-LSF 80 mg kg^−1 SC
Procedure: The emulsion of collagen was prepared according to the Protocol for the Successful Induction of Collagen-Induced Arthritis (CIA) in Rats (Chondrex Inc., 2015). Porcine type II collagen dissolved in 0.05 M acetic acid was emulsified with incomplete Freund’s adiuvant (Sigma Aldrich, Germany) using an Omni TH Homogenizer (Omni International, Inc., USA) consisting of a blade with 5 mm diameter. The collagen solution was previously mixed with IFA at a low speed for 1 min and then at the highest speed for 2 min. Then emulsion was being cooled for 5 min in an ice water bath. The emulsification process was repeated 3 times to obtain a stiff emulsion. The emulsion was then transferred into a Hamilton glass syringe, kept at 4°C, and used within 2 h.
as §1
Paw edema of arthritic rats was assessed as swelling of the rat hind paws. Measurements of paws were performed using a digital caliper according to the procedure described by Earp et al. ([18]). Each hind leg was measured at two sections, i.e., paw and ankle, and each section was measured at two places (side-to-side and top-to-bottom). The area of each section (elliptical in shape) was calculated from the following equation:2 Area=π·a·b/4 where (a) is side-to-side diameter of the ellipse and (b) is top-to-bottom diameter of the ellipse. Paw and ankle section areas of each leg were subsequently added to obtain one overall measure for the rat hind paw (Areaoverall). Each of these measures was normalized to the same hind paw area measured at day 0 of the experiment (Areazero) to reduce variation in the disease progression resulting from differences in paw size of each rat. Relative paw swelling (Paw) was calculated according to the equation:3 Paw=Areaoverall/Areazero
Paw size was measured at days 0, 5, 7, 11, 15, 18, 20, 22, 26, 30, 33, and 36 after the first immunization. […]

[4] = Rattus norvegicus, 480 h, read-out: IC50, concentration producing 50% of maximal inhibition (CIA progression), Final estimate (CV%)
[5] = LPS 10 mg L^−1, 6 h incubation, compared to LPS-treated control

Row | SMILES | chondritis / articular cartilage, histological score (result in words) [1] | subchondral osteoarthritis, histological score (result in words) [1] | synovitis / synovial inflammation, histological score (result in words) [1] | Reduction of TNF-α levels in LPS-stimulated whole rat blood (result in words) ([2]; concentration of 50 μM, compared to the control group) | IC50 [3, 4] | Reduction of TNF-α levels in LPS-stimulated whole rat blood (result in words) [2, 5] | decrease of relative paw swelling [3] | Inhibition of TNF-α release in LPS-stimulated whole rat blood (result in words) ([2]; levels of 50 and 250 μM, compared to the control wells) | IC50 at 50 mg/kg [3, 4]
1 | COc1ccc(C2CNC(=O)C2)cc1OC1CCCC1 (centres unmarked) [Rolipram, rolipram] | significant amelioration | significant amelioration | significant amelioration | completely reduced | 0.01 µg/mL (≈ 0.0363 µM) | – | – | – | –
2 | CC(O)CCCCn1c(=O)c2c(ncn2C)n(C)c1=O (racemic) [(±)-LSF, lisofylline] | attenuated | failed to significantly diminish | significant alleviation | – | – | significantly and with similar potency reduced | 30.5% | – | –
3 | Cn1c(=O)c2c(nc(NCCc3ccccc3)n2CCCC(=O)NN=Cc2ccccc2O)n(C)c1=O [GRMS-55, 4-(1,3-Dimethyl-2,6-dioxo-8-(phenethylamino)-2,3,6,7-tetrahydro-1H-purin-7-yl)-N′-(2-hydroxybenzylidene)butanehydrazide] | attenuated | attenuated | significant alleviation | – | – | did not exhibit activity | 31.5% | failed to inhibit TNF-α release | 0.26 µg/mL (≈ 0.516 µM)

Source: PMC6940354, “Comparative Assessment of the New PDE7 Inhibitor – GRMS-55 and Lisofylline in Animal Models of Immune-Related Disorders: A PK/PD Modeling Approach” (Pharmaceutical Research, 2020)
